Measurements from publication PMC7026080, “Phenotypic high-throughput screening platform identifies novel chemotypes for necroptosis inhibition” (Cell Death Discovery, 2020).

Tests used:
[1] = system: L929 cells; experiment: Cytotoxicity in L929 cells without TNF-α, 24 h, LDH release; assay type: cell-based, murine; conditions: Mus musculus, absence of TNF-α, toxicity, screening step 7, read-out: IC50 L929 (in vitro)
Description: The ability of compounds to interfere with specific steps of the necroptosis pathway, as well as inherent cytotoxicity and long-term necroptosis inhibitory effects were evaluated using in vitro necroptosis models (Fig. S1). Firstly, the 110 compounds were tested for their ability to modulate TNF-α-induced MLKL phosphorylation, a key necroptotic effector downstream of RIPK3[13]. […] Membrane integrity was evaluated by both AK and LDH release to exclude potential false positives.
Whole cell extracts were analysed by immunoblotting. […] Data represent mean values ± SEM of three independent experiments normalized to untreated control. Cell viability was assessed using a colorimetric-based readout for LDH release.
Whole cell extracts were analysed by immunoblotting. Data shown are representative blots and quantification of p-MLKL/MLKL ratio from one single experiment, in fold-change from control. […] Data represent mean values ± SEM of three independent experiments normalized to untreated control. Cell viability was assessed using a colorimetric-based readout for LDH release. c In vitro screening results for seven selected compounds at different stages of the HTS cascade. TEXT PRINTED IN THE PICTURE: (C) Nec-1: EC50 [μM] L929 + TNF-α (in vitro): 1.25 (Screening Step: 1; Time Point: 8 h); EC50 [μM] L929 + TNF-α (in vitro): 1.13 (Screening Step: 7; Time Point: 24 h); EC50 [μM] […]

[2] = MDCK-MDR1 cell-based permeability assay; assay type: in vitro ADME; conditions: dog
[3] = Mouse pharmacokinetics, i.v.; assay type: in vivo; conditions: plasma, iv, male C57BL/6J mice, 5 mg/kg i.v.; for AUC: read-out: Mouse AUC (in vivo); for Cmax: read-out: Mouse Cmax (in vivo); for clearance: read-out: Mouse clearance (in vivo) rate; for half-life: read-out: Mouse half-life (in vivo) T1/2 (converted); for Tmax: read-out: Tmax (in vivo)
Description: Pharmacokinetic measurements. Pharmacokinetic studies were performed in male C57BL/6J mice by Pharmaron (Pharmaron Beijing Co Ltd, Beijing, China). Compound (5 mg/kg body weight) was administered intravenously in vehicle (57% PBS, 32% DMSO, 4% PEG 400, 3% ethanol, 4% Tween 80). Blood samples obtained postdosing were collected in plastic microcentrifuge tubes containing EDTA-K2 and centrifuged at 4000 × g for 5 min to obtain plasma. The concentration of compound in plasma samples was determined using a liquid chromatography-tandem mass spectrometry (LC-MS/MS) method by monitoring transition from m/z 541 to 383 in ESI-positive mode. PK parameters were calculated by non-compartmental model using Phoenix WinNonlin v. 6.1 (Pharsight Corp, Certara, St. Louis, MO, USA).

SMILES | IC50 [1] [µM] | Papp A→B [2] [×10⁻⁶ cm/s] | Papp B→A [2] [×10⁻⁶ cm/s] | AUC [3] [µM·h] | Cmax [3] [µM] | clearance [3] [mL/min/kg] | half-life [3] [min] | Tmax [3] [min]
CN1C(=O)C(Cc2c[nH]c3ccccc23)NC1=S (stereo not shown) [Nec-1, necrostatin-1] | > 100 | 31 | 34 | 3.21 | 11.3 | 101 | 26.4 | 1.8
O=C(c1cnn(Cc2ccccc2)c1)N1CCOc2ccccc2C1 [SN-6109] | > 100 | 35 | 18 | 2.34 | 10.2 | 107 | 18.6 | 1.8
